This passage reports IC50, AC50 and EC50 results from ChEMBL document CHEMBL1201862, “PubChem BioAssay data set” (2004).

The structures appear in SMILES notation. Active and inactive are the calls of the source.

One assay has as its target T1, Leucine aminopeptidase (Plasmodium falciparum 3D7, UniProt Q8IL11).
T1 sequence (Q8IL11 whole entry): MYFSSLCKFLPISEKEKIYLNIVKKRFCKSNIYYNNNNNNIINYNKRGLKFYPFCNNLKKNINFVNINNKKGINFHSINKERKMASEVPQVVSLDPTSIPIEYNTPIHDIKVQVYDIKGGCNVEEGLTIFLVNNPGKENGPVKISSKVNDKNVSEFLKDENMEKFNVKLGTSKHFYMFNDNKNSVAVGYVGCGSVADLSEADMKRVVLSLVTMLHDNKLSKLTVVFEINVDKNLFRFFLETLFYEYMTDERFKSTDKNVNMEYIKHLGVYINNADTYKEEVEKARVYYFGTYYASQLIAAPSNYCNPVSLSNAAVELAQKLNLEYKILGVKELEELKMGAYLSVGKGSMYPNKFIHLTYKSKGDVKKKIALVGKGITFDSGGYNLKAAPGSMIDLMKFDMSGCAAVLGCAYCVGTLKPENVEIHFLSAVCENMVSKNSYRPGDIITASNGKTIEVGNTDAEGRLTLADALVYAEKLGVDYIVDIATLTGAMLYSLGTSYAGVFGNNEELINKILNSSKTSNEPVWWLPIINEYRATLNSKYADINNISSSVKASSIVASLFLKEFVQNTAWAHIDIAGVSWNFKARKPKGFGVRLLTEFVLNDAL
Description: P. falciparum M17LAP inhibitors, primary screen, biochemical, fluorogenic H-Leu-NHMec substrate, 1536-well (AID 1619). It is filed as functional.

In a further assay the target is Prothrombin (Homo sapiens, UniProt P00734). Briefly: Thrombin 1536 HTS Dose Response Confirmation. [Related pubchem assays: 1046 (Thrombin 1536 HTS; hits were confirmed in this assay)]. It is filed as functional.
Assay [1] concerns the target T2, Rac GTPase-activating protein 1 (Homo sapiens, UniProt Q9H0H5).
T2 sequence (Q9H0H5 whole entry): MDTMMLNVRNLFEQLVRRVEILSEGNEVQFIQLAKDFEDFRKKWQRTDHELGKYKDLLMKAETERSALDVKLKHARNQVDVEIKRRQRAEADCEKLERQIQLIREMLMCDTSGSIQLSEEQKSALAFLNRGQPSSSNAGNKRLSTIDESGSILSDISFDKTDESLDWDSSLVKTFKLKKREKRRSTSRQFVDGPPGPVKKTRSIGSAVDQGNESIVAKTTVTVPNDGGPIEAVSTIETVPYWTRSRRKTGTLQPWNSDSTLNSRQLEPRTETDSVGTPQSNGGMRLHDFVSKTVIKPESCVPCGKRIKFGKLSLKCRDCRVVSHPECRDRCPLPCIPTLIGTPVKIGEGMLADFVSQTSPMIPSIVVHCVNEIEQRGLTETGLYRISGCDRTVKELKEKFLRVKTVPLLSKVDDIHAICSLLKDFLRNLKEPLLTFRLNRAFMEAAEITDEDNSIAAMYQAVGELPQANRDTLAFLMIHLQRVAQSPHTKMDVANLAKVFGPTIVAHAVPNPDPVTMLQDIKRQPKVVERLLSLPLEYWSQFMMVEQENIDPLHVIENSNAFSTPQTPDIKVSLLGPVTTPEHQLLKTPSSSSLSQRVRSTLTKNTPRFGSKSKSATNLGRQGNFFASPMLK
Briefly: blockers of MgcRacGAP-driven Rac1 GTP hydrolysis – biochemical, ADP Hunter fluorescence, primary and confirmatory, confirmation (AID 624330). The class given is functional.

For assay [2], the target named is T3, Histone-lysine N-methyltransferase NSD2 (Homo sapiens, UniProt O96028).
T3 sequence (O96028 whole entry): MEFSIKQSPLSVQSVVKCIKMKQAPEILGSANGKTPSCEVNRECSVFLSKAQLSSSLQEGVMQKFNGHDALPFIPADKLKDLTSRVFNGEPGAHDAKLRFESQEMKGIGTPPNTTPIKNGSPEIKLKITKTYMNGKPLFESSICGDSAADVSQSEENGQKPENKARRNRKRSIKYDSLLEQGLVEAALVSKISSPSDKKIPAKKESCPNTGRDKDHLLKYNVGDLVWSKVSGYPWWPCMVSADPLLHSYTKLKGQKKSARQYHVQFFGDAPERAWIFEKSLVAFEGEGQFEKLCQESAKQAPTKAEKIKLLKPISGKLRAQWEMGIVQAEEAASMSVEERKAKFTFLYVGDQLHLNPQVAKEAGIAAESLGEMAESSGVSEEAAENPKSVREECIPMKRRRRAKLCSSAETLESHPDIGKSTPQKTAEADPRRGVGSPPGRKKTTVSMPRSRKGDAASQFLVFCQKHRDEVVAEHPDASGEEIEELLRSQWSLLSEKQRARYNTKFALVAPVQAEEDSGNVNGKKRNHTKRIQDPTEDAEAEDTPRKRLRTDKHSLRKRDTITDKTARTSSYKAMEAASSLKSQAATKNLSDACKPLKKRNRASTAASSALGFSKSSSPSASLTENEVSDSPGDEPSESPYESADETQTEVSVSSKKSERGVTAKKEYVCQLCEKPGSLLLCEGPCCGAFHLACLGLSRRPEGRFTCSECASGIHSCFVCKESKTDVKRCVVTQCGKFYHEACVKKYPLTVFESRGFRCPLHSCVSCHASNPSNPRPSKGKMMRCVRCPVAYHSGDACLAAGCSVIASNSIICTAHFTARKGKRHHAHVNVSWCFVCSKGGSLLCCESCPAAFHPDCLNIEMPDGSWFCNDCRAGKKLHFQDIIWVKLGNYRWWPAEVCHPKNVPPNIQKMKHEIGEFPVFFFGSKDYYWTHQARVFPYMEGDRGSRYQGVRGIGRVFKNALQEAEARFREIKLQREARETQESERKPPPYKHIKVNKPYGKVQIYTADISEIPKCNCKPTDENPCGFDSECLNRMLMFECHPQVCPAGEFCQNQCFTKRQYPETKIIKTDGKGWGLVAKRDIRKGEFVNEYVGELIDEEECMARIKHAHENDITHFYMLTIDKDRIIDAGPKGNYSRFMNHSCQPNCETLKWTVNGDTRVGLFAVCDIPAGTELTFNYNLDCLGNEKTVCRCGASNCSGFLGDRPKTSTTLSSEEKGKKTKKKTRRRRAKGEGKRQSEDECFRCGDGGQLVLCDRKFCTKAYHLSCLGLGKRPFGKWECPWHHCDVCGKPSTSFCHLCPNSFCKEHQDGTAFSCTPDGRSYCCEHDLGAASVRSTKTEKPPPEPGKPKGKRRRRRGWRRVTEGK
The class given is biochemical.

Assay [3] has as its target T4, Heat shock factor protein 1 (Mus musculus, UniProt P38532).
T4 sequence (P38532 whole entry): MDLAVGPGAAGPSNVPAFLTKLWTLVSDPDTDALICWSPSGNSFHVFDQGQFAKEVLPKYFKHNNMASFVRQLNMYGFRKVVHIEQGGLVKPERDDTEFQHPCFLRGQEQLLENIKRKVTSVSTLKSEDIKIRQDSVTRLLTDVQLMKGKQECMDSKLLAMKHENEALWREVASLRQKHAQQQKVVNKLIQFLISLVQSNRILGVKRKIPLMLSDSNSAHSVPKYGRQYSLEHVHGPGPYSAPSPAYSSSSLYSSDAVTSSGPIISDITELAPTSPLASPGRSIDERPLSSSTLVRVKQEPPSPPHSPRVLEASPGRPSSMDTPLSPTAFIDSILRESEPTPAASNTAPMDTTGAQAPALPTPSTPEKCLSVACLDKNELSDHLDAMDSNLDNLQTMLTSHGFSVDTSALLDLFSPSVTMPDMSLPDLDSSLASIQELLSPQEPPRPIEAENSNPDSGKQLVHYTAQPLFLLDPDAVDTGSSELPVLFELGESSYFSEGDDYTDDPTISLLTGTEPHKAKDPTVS
Description: decrease of HSF1-responsive luciferase luminescence – cell-based, NIH3T3, dose retest, confirmation (AID 2382).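 Further: NIH3T3 fibroblasts with HSF1-driven luciferase reporter stressed by proteasome inhibitor MG132; luminescence from HSF1-driven luciferase expression after 8 hours of MG132 stress.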 The class given is functional.

A short description of assay [4]: blockers of bursicon-stimulated LGR2 cAMP reporter – cell-based, HEK293, CRE-luciferase reporter, cherry pick, set 2, dose response (AID 743343).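 Further: transfected cells were stimulated with diluted bursicon conditioned medium after compound addition.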 The class given is functional.
Assay [5] in a line: blockade of melanocortin 4 receptor signaling – cell-based, plate reader, cherry pick, counter-screen for LGR2 antagonist project, dose response (AID 743444).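 Further: transfected HEK 293 cells stimulated with alpha-MSH peptide; potency of inhibitors of the alpha-MSH evoked signal.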 It is filed as functional. (The purpose of a counterscreen is to sort out artefacts and off-target activity.)
A further assay addresses Paired box protein Pax-8 (Homo sapiens, UniProt Q06710). Description: PAX8 transcriptional activity inhibition in RMG-I – RMG-I cells, luciferase, cherry-pick, dose response (AID 687027).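 Further: luciferase reporter driven by Pax8 target thyroperoxidase promoter measured by SteadyGlo luminescence.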 The class given is functional, cell-based.
Assay [6] in a line: OVCAR-3 cell viability loss – plate reader, dry powder samples, PAX8 inhibitor project, dose response (AID 743044). The class given is functional, cell-based.
The target of another assay is T5, Protein skinhead-1 (Caenorhabditis elegans, UniProt P34707).
T5 sequence (P34707 whole entry): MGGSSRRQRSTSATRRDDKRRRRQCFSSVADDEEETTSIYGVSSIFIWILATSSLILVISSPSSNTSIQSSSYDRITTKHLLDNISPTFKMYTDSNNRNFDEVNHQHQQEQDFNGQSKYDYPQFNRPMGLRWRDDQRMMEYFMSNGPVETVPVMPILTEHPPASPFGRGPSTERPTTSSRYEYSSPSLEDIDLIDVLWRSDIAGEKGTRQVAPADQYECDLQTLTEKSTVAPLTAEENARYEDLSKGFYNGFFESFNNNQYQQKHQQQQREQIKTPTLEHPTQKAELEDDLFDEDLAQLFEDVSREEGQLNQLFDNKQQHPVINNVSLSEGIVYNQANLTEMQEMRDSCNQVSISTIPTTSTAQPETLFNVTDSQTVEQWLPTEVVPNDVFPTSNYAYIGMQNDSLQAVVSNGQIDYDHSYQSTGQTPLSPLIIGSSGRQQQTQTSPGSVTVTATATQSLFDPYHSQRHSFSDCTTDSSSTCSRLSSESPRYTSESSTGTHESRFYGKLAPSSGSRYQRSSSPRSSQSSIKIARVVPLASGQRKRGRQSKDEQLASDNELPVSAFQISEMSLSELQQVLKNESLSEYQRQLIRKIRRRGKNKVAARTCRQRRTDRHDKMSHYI
The class given is functional.

Paired box protein Pax-8, sequence (Q06710 whole entry): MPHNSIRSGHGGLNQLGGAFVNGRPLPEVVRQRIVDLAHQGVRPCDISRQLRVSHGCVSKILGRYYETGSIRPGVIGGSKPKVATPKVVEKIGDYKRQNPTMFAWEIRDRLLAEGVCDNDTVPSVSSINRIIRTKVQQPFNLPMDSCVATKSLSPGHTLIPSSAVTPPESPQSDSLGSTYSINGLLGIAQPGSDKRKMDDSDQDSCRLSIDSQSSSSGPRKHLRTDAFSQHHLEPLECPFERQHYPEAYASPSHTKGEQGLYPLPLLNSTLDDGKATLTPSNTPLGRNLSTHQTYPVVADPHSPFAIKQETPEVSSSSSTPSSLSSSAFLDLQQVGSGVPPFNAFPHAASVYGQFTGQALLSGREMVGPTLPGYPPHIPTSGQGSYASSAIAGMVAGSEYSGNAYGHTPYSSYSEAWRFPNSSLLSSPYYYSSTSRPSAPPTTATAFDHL

As for `Cc1ccc(C)c(NC(=O)C2CC=CCC2C(=O)O)c1` (configuration not stated), the half-inhibitory concentration (IC50) at Leucine aminopeptidase is 18.6 µM (active).

As to `CCCOP(=O)(c1ccc(N(C)C)cc1)C(O)c1ccncc1` (configuration not stated), the IC50 at Prothrombin is recorded as > 50 µM (not active).

Consider `CCS(=O)(=O)C1=NN2C(=N)/C(=C\c3ccc(O)c(OC)c3)C(=O)N=C2S1`, for which the IC50 on Leucine aminopeptidase was 35.2 µM (active); in assay [1], 37.2 µM (active).

`C/C(=N\NC(=S)NC1CCCCC1)c1cccc(Br)c1`: the IC50 at Prothrombin was > 50 µM (inconclusive).

Regarding `COc1cccc(=O)c2c(C)n(-c3ccc(C(=O)O)cc3)c(C)c12`, in assay [2], the AC50 was > 20 µM (inactive).

As for `Cc1cc(C(=O)COC(=O)C2CC2)c(C)n1-c1ccc(F)cc1`, in assay [3], the EC50 is 1.96 µM (active). Besides, the AC50 in assay [4] was 0.585 µM (active); in assay [5], 0.334 µM (active).

For `CCCCCOc1ccc(NC(=O)CCCC(=O)O)cc1`, at Leucine aminopeptidase, the half-inhibitory concentration (IC50) was 11.3 µM (active).

For `Cc1ccc(S(=O)(=O)N(C)C[C@@H]2Oc3cc(C#Cc4ccncc4)ccc3S(=O)(=O)N([C@H](C)CO)C[C@@H]2C)cc1`, the concentration at half-maximal activity (AC50) is 6.03 µM (active) on Paired box protein Pax-8 and 22.4 µM (active) in assay [6].

`O=C1C(=O)N(CCS(=O)(=O)c2ccccc2)c2ccc(F)cc21`: the AC50 in [2] is 8.09 µM (active).

Take `COc1ccccc1N1CCN(C(=O)CNC(=O)c2cn(-c3ccccc3OC)c(=O)c3ccccc23)CC1`: on Prothrombin, the half-inhibitory concentration (IC50) is 9.56 µM (active).

Turning to `Cc1ccc(C(=O)CSc2nc(C)cc(C)c2C(N)=O)cc1`, the 50% inhibitory concentration (IC50) against Prothrombin is reported as > 50 µM (not active).

For `CSc1nc(-c2ccco2)nn1C(=O)c1ccc(C)cc1`, the IC50 at Prothrombin was 0.16 µM (active); at Protein skinhead-1, > 100 µM (inactive).

What is called IC50 is the concentration that gives 50% inhibition. The AC50 is the concentration at which the activity in the assay is half-maximal. The term EC50 denotes the midpoint of the concentration-response curve.
